# Assay results as given in patent publication US6040149A, “Assay for identifying agents which act on the ceramide-activated protein kinase, kinase suppressor of ras, and methods of using said agents” (priority 1997, dated 2000).
# Assays:
# [1] = system: ceramide-activated protein kinase; experiment: CAP kinase activation in HL-60 cells (renaturation and autophosphorylation); format: cell-based, human (HL-60 cells); conditions: TPA 100 ng/ml
# Description: Stimulation of ceramide-activated protein (CAP) kinase by lipid A. On the day of an experiment, HL-60 cells were resuspended (1×10^6 cells ml^-1) into serum-free RPMI 1640 containing 5 μg ml^-1 insulin and transferrin. After 2 h, cells were stimulated with lipid A (Escherichia Coli) or diluent (DMSO, <0.01%). Ceramide-activated protein kinase contained within microsomal membranes was detected by renaturation and autophosphorylation. Briefly, membrane proteins (200 μg per lane) were separated by SDS-PAGE (10%), and the gel was washed with two changes of buffer (50 mM Tris, pH 7.4, 5 mM 2-mercaptoethanol) containing 20% 2-propanol at room temperature for 1 h, and once in buffer without 2-propanol for 1 h. Denaturation was accomplished by incubation of the gel in two changes of 6M guanidinium HCl in wash buffer for 1 h each. Renaturation was accomplished by incubation of the gel overnight at 4° C. in wash buffer containing 0.04% Tween-20. The gel was then equilibrated for 10 min at room temperature in kinase reaction mixture (25 mM HEPES, pH 7.4, 10 mM MgCl2, 0.5 mM EGTA and 5 mM NaF) and [γ-^32 p] ATP (50 μM final concentration; 1000 dpm pmol^-1) was added. Autophosphorylation was terminated by removal of the reaction mixture. The gel was washed with 6 changes of buffer (5% trichloroacetic acid, 1% sodium pyrophosphate) for 2 h and subjected to autoradiography. Top panel--Time course of lipid A activation. Bottom panel--Dose response at 5 minutes of lipid A stimulation. Autoradiograms represent one of three similar studies in both panels A and B.
# On the day of an experiment, cells were resuspended (1×10^6 cells ml^-1) into serum-free RPMI 1640 containing 5 μg ml^-1 insulin and transferrin. After 2 h, cells were stimulated with lipid A or diluent (DMSO, <0.01% ). […] The postnuclear supernate was centrifuged at 200,000×g for 30 min and microsomal membranes were resuspended ([…]) into homogenizing buffer. Ceramide-activated protein kinase was detected by renaturation and autophosphorylation. Briefly, membrane proteins (200 μg per lane) were separated by SDS-PAGE (10%), and the gel was washed with two changes of buffer (50 mM Tris, pH 7.4, 5 mM 2-mercaptoethanol) containing 20% 2-propanol at room temperature for 1 h, and once in buffer without 2-propanol for 1 h. Denaturation was accomplished by incubation of the gel in two changes of 6M guanidinium HCl in wash buffer for 1 h each. Renaturation was accomplished by incubation of the gel overnight at 4° C. in wash buffer containing 0.04% Tween-20. The gel was then equilibrated for 10 min at room temperature in kinase reaction mixture (25 mM HEPES, pH 7.4, 10 mM MgCl2, 0.5 mM EGTA and 5 mM NaF) and [γ-^32 P] ATP (50 μM final concentration; 1000 dpm pmol^-1. Autophosphorylation was terminated by removal of the reaction mixture. The gel was washed with 6 changes of buffer (5% trichloracetic acid, 1% sodium pyrophosphate) for 2 h and subjected to autoradiography.
# For studies involving activation of ceramide-activated protein kinase by LPS, HL-60 cells (13×10^6 ml^-1) were handled as above, and LPS (Salmonella typhosa, 50 ng ml^-1), recombinant LBP (1.7 μg ml^-1) or both LPS and LBP were added for the times indicated. Isolation of microsomal membranes and autophosphorylation of ceramide-activated protein kinase were performed as above.
# [2] = system: ceramide-activated protein kinase; experiment: EGFR peptide phosphorylation by kinase in A-431 microsomal membranes / postnuclear supernatant; format: biochemical, human (A-431 epidermoid carcinoma cells)
# KSR/Raf-1 complex = experiment: Co-immunoprecipitation of KSR and Raf-1 from treated COS-7 cells; format: cell-based, mouse KSR (COS-7 cells); conditions: TNFα
# Description: FIG. […] Cells were lysed with NP-40 buffer and subjected to 4 hr of immunoprecipitation with anti-Raf-1 antibody. Two controls, KSR and KSR with ceramide treatment, received protein A conjugated sepharose beads without anti-Raf-1 antibody. […] Data represent one of four similar experiments.
# Cell lysates were subjected to immunoprecipitation with anti-Flag antibody. Immunoprecipitated samples were handled as in FIG. 24A except Western blot analysis was performed with anti-Raf-1 antibody. Data represent one of three similar experiments.
# Anti-Raf-1 antibody conjugated beads were prepared by overnight incubation of 2 μl of anti-Raf-1 antibody (a kind gift of Dr. Debbie Morrison) with 5 mg of the protein A conjugated sepharose beads, followed by washing three times with NP-40 lysis buffer. […] Lysates (0.8 mg total protein) were then incubated for 4 hrs with anti-Raf-1 bound sepharose beads or anti-Flag conjugated agarose beads. The beads were washed vigorously 5 times, boiled in Laemmli sample buffer, and proteins were separated on 7.5% SDS-PAGE. After electrophoresis, the gel was transferred to PVDF membrane and probed with anti-Flag antibody or anti-Raf-1 antibody.
compound,measurement,setting,value
"CCCCCCCCCCCCCC(=O)O[C@@H]1[C@@H](C)[C@@]2(O)[C@@H](C=C(CO)C[C@]3(O)C(=O)C(C)=C[C@@H]23)[C@@H]2C(C)(C)[C@]12OC(C)=O [TPA, 12-0-tetradecanoylphorbol-13-acetate]",activation of CAP kinase,[1],did not activate CAP kinase
CCCCCCCCCCCCC/C=C/[C@@H](O)[C@@H](N)CO [sphingosine],"EGFR peptide phosphorylation, fold of control","[2]; 2 minutes of stimulation, maximal effect for ceramide at 1 μM",1.6 fold of control
same,effect on EGFR peptide phosphorylation,[2]; words,similarly effective
TNF-α,KSR complex formation with Raf-1,KSR/Raf-1 complex,induced KSR to complex with Raf-1
